Like-named read-outs stand apart in the source and are kept apart here.
Columns and labels:
[1] = system: PSA; assay: Screening SSIA by homogeneous PSA immunoassay; assay type: biochemical
Protocol: This example presents one method used for testing of candidate compounds for functionality as SSIA in assays of the present disclosure. Testing was conducted in a model screening immunoassay of the protein PSA. Mouse anti-PSA tests were run using a 96-well microtiter plate format. […] The plate was incubated at 37° C. for 10 minutes. A 5 μL aliquot of the test compound (various concentrations) was added to each well. Chemiluminescence was triggered by the addition of 100 μL of a solution of trigger solution A. The chemiluminescent flash was integrated for 5 seconds after the addition of the trigger solution using a Luminoskan Asent® plate luminometer, (Thermo Fischer Scientific, Inc., Waltham, Mass.).
It is desirable that the improvement factor be at least 2 (S5/S0≧ about 20-30) and more desirable that improvement factor be at least 5 (S5/S0≧ about 50), yet more desirable that S5/S0 be ≧100 in the present screen.

[2] = biological target: T1, biotinylated HRP (Armoracia rusticana, UniProt P00433); assay: Model system for selection of SSIA (M280 btn-BSA-AK1-streptavidin particles + Btn-HRP:HRP); assay type: biochemical; conditions: for S/S0: Btn-HRP 0 ng/mL vs 0; for S/S0 / S1/S0 / S2/S0 / S3/S0 / S4/S0 / effect in the model system / utility as SSIA: SSIA 100 μM; for B-HRP0 light intensity: Btn-HRP 0 ng/mL; for B-HRP0 light intensity / B-HRP1 light intensity / B-HRP10 light intensity / B-HRP100 light intensity / B-HRP250 light intensity: total HRP 500 ng/mL, SSIA final 100 μM; for S1/S0: Btn-HRP 1 ng/mL vs 0; for B-HRP1 light intensity: Btn-HRP 1 ng/mL; for S2/S0: Btn-HRP 10 ng/mL vs 0; for B-HRP10 light intensity: Btn-HRP 10 ng/mL; for S3/S0: Btn-HRP 100 ng/mL vs 0; for B-HRP100 light intensity: Btn-HRP 100 ng/mL; for S4/S0: Btn-HRP 250 ng/mL vs 0; for B-HRP250 light intensity: Btn-HRP 250 ng/mL; for effect in the model system / utility as SSIA: conclusion in words
T1 construct: purchased Roche Diagnostics, Indianapolis, Ind., USA
T1 sequence (P00433 31-338 limits assumed): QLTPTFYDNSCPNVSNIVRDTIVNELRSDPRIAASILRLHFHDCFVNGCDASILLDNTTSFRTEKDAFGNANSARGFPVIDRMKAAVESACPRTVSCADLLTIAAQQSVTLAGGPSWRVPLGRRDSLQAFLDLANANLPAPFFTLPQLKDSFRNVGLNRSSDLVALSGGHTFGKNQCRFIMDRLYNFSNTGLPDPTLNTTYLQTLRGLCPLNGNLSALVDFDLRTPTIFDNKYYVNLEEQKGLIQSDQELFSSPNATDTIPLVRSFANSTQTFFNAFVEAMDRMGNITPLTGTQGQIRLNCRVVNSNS
Protocol: The model system uses a microparticle conjugated to BSA (bovine serum albumin) labeled with a […] and acridan ketenedithioacetal chemiluminescent label (AK1) as the chemiluminescent-labeled sbp, and biotinylated HRP as the activator-labeled specific binding pair. In the model system, varying amounts of Btn-HRP is added to the chemiluminescent-labeled specific binding pair at 0, 1, 10, 100 and 250 ng/mL. Additional unlabeled HRP is added to reach a total HRP of concentration of 500 ng/mL in each reaction mixture. The unlabeled HRP in combination with the activator-labeled sbp was provided to the chemiluminescent-labeled sbp microparticles to emulate sample. A compound for assessment as an SSIA was also added. This reaction mixture of the model system is then triggered by addition of trigger solution in a manner of assays of the present disclosure.
To prepare the chemiluminescent-labeled sbp on microparticles, Bovine Serum Albumin (BSA) was biotinylated with 4× molar excess of biotin-LC-sulfoNHS (Pierce Biotechnology Inc., Rockford, Ill., USA). Unbound reactants were removed via desalting or dialysis. The biotin-BSA was then reacted with a 5× molar excess of acridan ketenedithioacetal AK1 in 20 mM sodium phosphate pH 7.2: DMSO 75:25, v/v) followed by desalting in the same buffer. The dual labeled (biotin and AK1) BSA was then coupled with tosyl activated M-280 microparticles (Invitrogen Corporation, Carlsbad, Calif., USA) in a 0.1 M borate buffer pH 9.5 at a concentration of ca. 20 μg labeled BSA per mg of microparticles for 16-24 h at 40° C. After coupling the microparticles were stripped for 1 h at 40° C. with 0.2 M TRIS base, 2% SDS, pH ˜11. The stripping process was repeated one additional time. Microparticles were then suspended in a 0.1% BSA/TRIS buffered saline (BSA/TBS) buffer and streptavidin (SA) was added at approximately 15 μg SA per mg microparticles. Streptavidin was mixed with the microparticles for 45-50 min at room temperature. The microparticles were then washed three times and suspended in the same BSA/TBS.
HRP, (Roche Diagnostics, Indianapolis, Ind., USA) was biotinylated with 4× molar excess of biotin-LC-sulfoNHS (Pierce Biotechnology Inc., Rockford, Ill., USA). Unbound reactants were removed via desalting or dialysis.
Each SSIA compound for assessment was dissolved in Buffer II at a concentration at least 10× of final concentration of the reaction mixture (after the addition of the trigger solution)
Paramagnetic particles (PMP): (M280)-(btn-BSA-AK)-(Streptavidin);
Sample Emulator: B-HRP:HRP; 500 ng/mL total with titration of B-HRP:HRP at Total HRP concentration of 500 ng/mL, with Btn-HRP variations: 0, 1, 10, 100 and 250 ng/mL.
SSIA: According to tables below in BUFFER II targeted to give a final concentration of 100 μM.
Trigger solution A is defined above.
5 μl of 1 mg/ml of dual-labeled (biotin and AK1) BSA M280 particles were mixed with 45 μl of working concentration SSIA in Buffer II. The assay volume brought to […] by adding 15 μl of Buffer II. 15 μl of sample containing Btn-HRP:HRP at different ratios (The amount of biotinylated-HRP varied from 0, 1, 10, 100 and 250 ng/mL) was added. The reaction mixture was incubated for 30 min at 37° C., then 100 μL of trigger solution was added and the light intensity recorded. Total volume of reaction mixture, including trigger solution was […] with a final concentration of 100 μM of SSIA.

[3] = PSA 129 ng/mL (S5) vs zero, test compound final conc. 0.122 mM
[4] = PSA 129 ng/mL (S5) vs zero, test compound final conc. 122 uM
[5] = PSA 129 ng/mL (S5) vs zero, test compound final conc. 0.244 mM
[6] = PSA 129 ng/mL (S5) vs zero, test compound final conc. 0.061 mM

## O=C(O)/C(O)=C(/O)C(=O)O
[1]; [3]
  S5/S0: 30

## Oc1ccc(O)c(Cl)c1 [drawing 75]
[1]; PSA 129 ng/mL (S5) vs zero, test compound final conc. 0.111 mM
  S5/S0: 229

## Cc1cc(-c2cc(C)c(N)c(C)c2)cc(C)c1N [TMB]
[1]; PSA 129 ng/mL (S5) vs zero, test compound final conc. 61 uM
  S5/S0: 20

## COc1cc(C(C)(C)C)c(O)c(C(C)(C)C)c1
[1]; [3]
  S5/S0: 19

## COC1=C(O)C(=O)O[C@@H]1[C@@H](O)CO
[1]; [4]
  S5/S0: 16

## Nc1ccc(C(=O)O)cc1O [drawing 79]
[1]; [3]
  S5/S0: 153

## O=S(=O)([O-])CCCOCCCN1c2ccccc2Cc2ccccc21.[Na+]
[1]; [5]
  S5/S0: 6

## Nc1ccc2ccccc2c1O
[1]; [5]
  S5/S0: 109

## COc1ccccc1N
[1]; [3]
  S5/S0: 7

## Oc1cccc(O)c1O
[1]; [3]
  S5/S0: 69

## O=S(=O)([O-])CCCN1c2ccccc2Cc2ccccc21.[Na+]
[1]; [5]
  S5/S0: 15

## Nc1c(O)ccc2ccccc12
[1]; [3]
  S5/S0: 63

## O[C@@H](CS)[C@@H](O)CS [DTT]
[1]; PSA 129 ng/mL (S5) vs zero, test compound final conc. 72 uM
  S5/S0: 20

## NNC(=O)c1ccccc1O
[1]; [6]
  S5/S0: 23

## NCCNC(=O)c1ccc(NN)cc1
[1]; PSA 129 ng/mL (S5) vs zero, test compound final conc. 1.22 mM
  S5/S0: 138

## NN [NH2NH2]
[1]; PSA 129 ng/mL (S5) vs zero, test compound final conc. 244 uM
  S5/S0: 15

## Oc1ccc(O)c(Br)c1
[1]; [3]
  S5/S0: 570

## CC1(C)OC(=O)C(O)=C1O
[1]; [3]
  S5/S0: 467

## O=C1O[C@H]([C@@H](O)CO)C(O)=C1O [drawing 72]
[1]; [3]
  S5/S0: 423

## O=C(O)c1cc(O)c2ccccc2n1
[1]; [3]
  S5/S0: 6

## O=c1c(O)c(-c2ccccc2)oc2ccc(O)cc12
[1]; [3]
  S5/S0: 9

## N[C@@H](CS)C(=O)O [L-Cysteine]
[1]; [4]
  S5/S0: 22

## Oc1ccc(Cl)cc1O [drawing 77]
[1]; [5]
  S5/S0: 409

## Nc1ccccc1O [drawing 47]
[1]; [3]
  S5/S0: 649

## Oc1ccc([C@@H]2Oc3cc(O)c(O)cc3C[C@@H]2O)cc1O
[1]; [3]
  S5/S0: 323

## O=c1c(O)c(-c2ccccc2)oc2ccccc12
[1]; [3]
  S5/S0: 13

## CC1=C(O)C(=O)C(C)O1 (centres unmarked)
[1]; PSA 129 ng/mL (S5) vs zero, test compound final conc. 1.25 mM
  S5/S0: 237

## Nc1c(O)cc(S(=O)(=O)O)c2ccccc12
[1]; [3]
  S5/S0: 65

## O=S([O-])[O-].[Na+].[Na+] [Na2SO3]
[1]; PSA 129 ng/mL (S5) vs zero, test compound final conc. 15 uM
  S5/S0: 59

## O=C(O)c1ccc(O)c(O)c1
[1]; [3]
  S5/S0: 178

## O=C1O[C@H]([C@@H](O)CO)C(O)=C1O [drawing 64]
[1]; [4]
  S5/S0: 10.3

## c1ccc2c(c1)Cc1ccccc1N2
[1]
  S5/S0: 120

## Oc1c(F)c(F)c(O)c(F)c1F
[1]; PSA 129 ng/mL (S5) vs zero, test compound final conc. 0.014 mM
  S5/S0: 50

## OB(O)c1cc(Cl)ccc1O
[1]; [5]
  S5/S0: 22

## O=C1O[C@H]([C@H](O)CO)C(O)=C1O
[1]; [4]
  S5/S0: 10.3

## O=C(c1ccccc1)C1c2ccccc2Nc2ccccc21
[1]; [3]
  S5/S0: 9

## O=C1C(O)=C(Cl)C(=O)C(O)=C1Cl
[1]; PSA 129 ng/mL (S5) vs zero, test compound final conc. 0.031 mM
  S5/S0: 7

## Oc1cccnc1O
[1]; [3]
  S5/S0: 41

## Nc1cc(C[C@H](N)C(=O)O)ccc1O
[1]; [5]
  S5/S0: 448

## O=C(O)/C=C/c1ccc(O)c(O)c1
[1]; [3]
  S5/S0: 116

## O=c1c2ccccc2[nH]c2ccccc12
[1]; [3]
  S5/S0: 14

## Cc1cc(CO)c(O)c(CO)c1
[1]; [3]
  S5/S0: 23

## O=C(O)c1cccc(O)c1O
[1]; [3]
  S5/S0: 22

## Nc1cc2ccccc2cc1O
[1]; [5]
  S5/S0: 67

## C[C@H]1OC(=O)C(O)=C1O
[1]; [3]
  S5/S0: 423

## O=C1C(O)=C(O)C(=O)C(O)=C1O
[1]; [6]
  S5/S0: 51

## O=C1O[C@H]([C@@H](O)CO)C(=O)C1=O
[1]; [3]
  S5/S0: 26

## Nc1ccccc1B(O)O
[1]; [3]
  S5/S0: 108

## Cc1ccc(O)c(O)c1
[1]; [3]
  S5/S0: 142

## C=CCc1ccc(O)c(OC)c1
[1]; [5]
  S5/S0: 30

## O=c1cc(O)c2ccccc2o1
[1]; [3]
  S5/S0: 17

## c1ccc2c(c1)Cc1ccccc1O2
[1]; [3]
  S5/S0: 4

## CC1(C)OC[C@@H]([C@H]2OC(=O)C(O)=C2O)O1 [5,6iso-propyliene ascorbic acid, 5,6-Isopropylidene-L-Ascorbic acid]
[2]
  S/S0: 1
  B-HRP0 light intensity: 264
  S1/S0: 3.6
  B-HRP1 light intensity: 961
  S2/S0: 112.3
  B-HRP10 light intensity: 29,645
  S3/S0: 18626.9
  B-HRP100 light intensity: 4,917,499
  S4/S0: 33275
  B-HRP250 light intensity: 8,784,595
  effect in the model system / utility as SSIA: demonstrating utility as SSIA

## Cc1c(C)c2c(c(C)c1O)CC[C@@](C)(CCC[C@H](C)CCC[C@H](C)CCCC(C)C)O2 (racemic) [(+/−)-alpha-Tocopherol, (±)-a-Tocopherol]
[2]
  S/S0: 1
  B-HRP0 light intensity: 2,772
  S1/S0: 2.3
  B-HRP1 light intensity: 6,468
  S2/S0: 452.1
  B-HRP10 light intensity: 1,253,187
  S3/S0: 3088.2
  B-HRP100 light intensity: 8,560,469
  S4/S0: 3473.4
  B-HRP250 light intensity: 9,628,184

## N[C@@H](CS)C(=O)O [Cysteine]
[2]
  S/S0: 1
  B-HRP0 light intensity: 35,695
  S1/S0: 1.6
  B-HRP1 light intensity: 58,203
  S2/S0: 69.6
  B-HRP10 light intensity: 2,483,411
  S3/S0: 256.3
  B-HRP100 light intensity: 9,147,371
  S4/S0: 285.5
  B-HRP250 light intensity: 10,190,505
  effect in the model system / utility as SSIA: no effect

## NNC(=O)c1cccnc1 [Nicotinic Hydrazide]
[2]
  S/S0: 1
  B-HRP0 light intensity: 42,260
  S1/S0: 1.4
  B-HRP1 light intensity: 58,356
  S2/S0: 49.8
  B-HRP10 light intensity: 2,106,471
  S3/S0: 194.2
  B-HRP100 light intensity: 8,205,320
  S4/S0: 187.5
  B-HRP250 light intensity: 7,923,092
  effect in the model system / utility as SSIA: no effect
